Patent US20200060276A1, “THIAZOLE COMPOUND AND HERBICIDE” (OAT Agrio Co., Ltd., priority 2017, published 2020)

Legend:
Format in all cases: in vivo
Scirpus juncoides = assay: Test for Herbicidal Effect in Flooding Treatment (#1), SCIJU; settings: for SCIJU #1 herbicidal effect (growth inhibition grade): flooding treatment at seeding, dose 2 kg/ha, visual observation on day 21; for SCIJU #1 herbicidal effect (growth inhibition rating 0-5): flooding treatment #1
How it was run: (§1)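 Flooded soil in cups was seeded 24 h after flooding, then treated with compound in acetone diluted with Tween 80-containing water, dropped onto the water surface at 2 kg/ha. After growth in a glasshouse, growth inhibition was scored visually on day 21 on a 0 (<10%) to 5 (≥90% or complete withering) scale.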

Cyperus microiria = assay: Test for Herbicidal Effect in Flooding Treatment (#1), CYMIC; settings: flooding treatment at seeding, dose 2 kg/ha, visual observation on day 21
Procedure: (#1) Test for Herbicidal Effect in Flooding Treatment: Styrol cups each having an opening diameter of 8 cm (about 52 cm^2) were respectively filled with soil (45 ml) which had been passed through a sieve (2 mm). Water (about 115 ml) was mixed with the soil such that the soil was flooded. After the soil stood still for 24 hours, Monochoria vaginalis, Echinochloa crus-galli (L.) P. Beauv. var. formosensis Ohwi, Cyperus difformis (umbrella sedge), and Scirpus juncoides were seeded. Each of the compounds of the present invention was dissolved in acetone, and the obtained product was then diluted with water containing Tween 80®. Each of the resultant chemical solutions was dropped on the entire surface of an associated one of treatment sections, so that each section was treated with 1 ml of the respective chemical solution (a dose of 2 kg/ha). After the treatment, the plants were grown in a glasshouse. On day 21, a survey was conducted on the herbicidal activity by visual observation, and evaluation was made according to the following criteria. 0: Growth inhibition effect is less than 10%. 1: Growth inhibition effect is equal to or greater than 10%, and less than 30%. 2; Growth inhibition effect is equal to or greater than 30%, and less than 50%. 3: Growth inhibition effect equal to or greater than 50%, and less than 70%. 4: Growth inhibition effect is equal to or greater than 70%, and less than 90%. 5: Growth inhibition effect is equal to or greater than 90%, or complete withering is achieved. ECHDG=Echinochloa crus-galli (L.) P. Beauv. var. formosensis Ohwi, MONVA=Monochoria vaginalis, SCIJU=Scirpus juncoides, CYMIC=Cyperus microiria.

[1] = tested on: Echinochloa crus-galli (L.) P. Beauv. var. formosensis Ohwi; assay: Test for Herbicidal Effect in Flooding Treatment (#2), ECHDG at 2-2.5 leaf stage; settings: for ECHDG (2-2.5L) #2 herbicidal effect (growth inhibition grade): flooding treatment at 2-2.5 leaf stage, dose 0.2 kg/ha, visual observation on day 21; for ECHDG (2-2.5L) #2 herbicidal effect (growth inhibition rating 0-5): flooding treatment #2, 2-2.5 leaf stage
How it was run: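 Scoring is a visual 0–5 scale of growth inhibition (0 below 10%, 5 at 90% or more or full withering), taken 21 days after treatment in a glasshouse. Dose was 0.2 kg/ha, applied as acetone/Tween 80 aqueous solution onto flooded soil once seedlings reached the 2–2.5 leaf stage.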

[2] = tested on: Echinochloa crus-galli (L.) P. Beauv. var. formosensis Ohwi; assay: Test for Herbicidal Effect in Flooding Treatment (#1), ECHDG; settings: for ECHDG #1 herbicidal effect (growth inhibition grade): flooding treatment at seeding, dose 2 kg/ha, visual observation on day 21; for ECHDG #1 herbicidal effect (growth inhibition rating 0-5): flooding treatment #1
How it was run: as §1

Monochoria vaginalis = assay: Test for Herbicidal Effect in Flooding Treatment (#1), MONVA; settings: for MONVA #1 herbicidal effect (growth inhibition grade): flooding treatment at seeding, dose 2 kg/ha, visual observation on day 21; for MONVA #1 herbicidal effect (growth inhibition rating 0-5): flooding treatment #1
How it was run: as §1

Row | SMILES | SCIJU #1 herbicidal effect (growth inhibition grade) (Scirpus juncoides) | CYMIC #1 herbicidal effect (growth inhibition grade) (Cyperus microiria) | ECHDG (2-2.5L) #2 herbicidal effect (growth inhibition grade) [1] | ECHDG #1 herbicidal effect (growth inhibition grade) [2] | inhibition at 200 g/ha ([1]; Echinochloa crus-galli, 504 h, flooding treatment (#2), ECHDG at 2-2.5 leaf stage, dose of 0.2 kg/ha, day 21, visual observation, read-out: growth inhibition effect) [%] | MONVA #1 herbicidal effect (growth inhibition grade) (Monochoria vaginalis) | SCIJU #1 herbicidal effect (growth inhibition rating 0-5) (Scirpus juncoides) | MONVA #1 herbicidal effect (growth inhibition rating 0-5) (Monochoria vaginalis) | ECHDG (2-2.5L) #2 herbicidal effect (growth inhibition rating 0-5) [1] | ECHDG #1 herbicidal effect (growth inhibition rating 0-5) [2]
1 | CCOc1cc(F)ccc1CS(=O)(=O)c1ncc(Cl)s1 [Compound 1C-12] | 5 (Growth inhibition effect is equal to or greater than 90%, or complete withering is achieved) | 5 (Growth inhibition effect is equal to or greater than 90%, or complete withering is achieved) | 4 (Growth inhibition effect is equal to or greater than 70%, and less than 90%) | 5 (Growth inhibition effect is equal to or greater than 90%, or complete withering is achieved) | – | – | – | – | – | –
2 | COc1ccc(F)c(CS(=O)(=O)c2ncc(Cl)s2)c1Cl [Compound 1C-72] | 5 (Growth inhibition effect is equal to or greater than 90%, or complete withering is achieved) | 5 (Growth inhibition effect is equal to or greater than 90%, or complete withering is achieved) | 5 (Growth inhibition effect is equal to or greater than 90%, or complete withering is achieved) | 5 (Growth inhibition effect is equal to or greater than 90%, or complete withering is achieved) | – | – | – | – | – | –
3 | COCOc1cc(F)c(CS(=O)(=O)c2ncc(Cl)s2)c(F)c1 [Compound 1C-118] | 5 (Growth inhibition effect is equal to or greater than 90%, or complete withering is achieved) | 5 (Growth inhibition effect is equal to or greater than 90%, or complete withering is achieved) | 4 (Growth inhibition effect is equal to or greater than 70%, and less than 90%) | 5 (Growth inhibition effect is equal to or greater than 90%, or complete withering is achieved) | – | – | – | – | – | –
4 | CCOc1cc(Cl)c(CS(=O)(=O)c2ncc(Cl)s2)cc1Cl [Compound 1C-102] | 5 (Growth inhibition effect is equal to or greater than 90%, or complete withering is achieved) | 5 (Growth inhibition effect is equal to or greater than 90%, or complete withering is achieved) | 4 (Growth inhibition effect is equal to or greater than 70%, and less than 90%) | 5 (Growth inhibition effect is equal to or greater than 90%, or complete withering is achieved) | – | – | – | – | – | –
5 | CCOc1ccc(Br)cc1CS(=O)(=O)c1ncc(Cl)s1 [Compound 1C-17] | 5 (Growth inhibition effect is equal to or greater than 90%, or complete withering is achieved) | 5 (Growth inhibition effect is equal to or greater than 90%, or complete withering is achieved) | 5 (Growth inhibition effect is equal to or greater than 90%, or complete withering is achieved) | 5 (Growth inhibition effect is equal to or greater than 90%, or complete withering is achieved) | – | – | – | – | – | –
6 | CCOc1ccc(Cl)cc1CS(=O)(=O)c1ncc(Cl)s1 [Compound 1C-16] | 5 (Growth inhibition effect is equal to or greater than 90%, or complete withering is achieved) | 5 (Growth inhibition effect is equal to or greater than 90%, or complete withering is achieved) | 5 (Growth inhibition effect is equal to or greater than 90%, or complete withering is achieved) | 5 (Growth inhibition effect is equal to or greater than 90%, or complete withering is achieved) | ≥ 90 | – | – | – | – | –
7 | COc1ccc(CS(=O)(=O)c2ncc(Cl)s2)c(OC)c1 [Compound 1C-125] | 5 (Growth inhibition effect is equal to or greater than 90%, or complete withering is achieved) | 5 (Growth inhibition effect is equal to or greater than 90%, or complete withering is achieved) | 5 (Growth inhibition effect is equal to or greater than 90%, or complete withering is achieved) | 5 (Growth inhibition effect is equal to or greater than 90%, or complete withering is achieved) | – | – | – | – | – | –
8 | O=S(=O)(Cc1ccc(OC(F)F)cc1)c1ncc(Cl)s1 [Compound 1C-114] | 5 (Growth inhibition effect is equal to or greater than 90%, or complete withering is achieved) | 5 (Growth inhibition effect is equal to or greater than 90%, or complete withering is achieved) | 1 (Growth inhibition effect is equal to or greater than 10%, and less than 30%) | 5 (Growth inhibition effect is equal to or greater than 90%, or complete withering is achieved) | – | – | – | – | – | –
9 | COc1cccc(OC)c1CS(=O)(=O)c1ncc(Cl)s1 [Compound 1C-127] | 5 (Growth inhibition effect is equal to or greater than 90%, or complete withering is achieved) | 5 (Growth inhibition effect is equal to or greater than 90%, or complete withering is achieved) | – | 5 (Growth inhibition effect is equal to or greater than 90%, or complete withering is achieved) | – | – | – | – | – | –
10 | O=S(=O)(Cc1c(F)cccc1OCC(F)(F)F)c1ncc(Cl)s1 [Compound 1C-54] | 5 (Growth inhibition effect is equal to or greater than 90%, or complete withering is achieved) | – | 5 (Growth inhibition effect is equal to or greater than 90%, or complete withering is achieved) | 5 (Growth inhibition effect is equal to or greater than 90%, or complete withering is achieved) | – | 5 (Growth inhibition effect is equal to or greater than 90%, or complete withering is achieved) | – | – | – | –
11 | O=S(=O)(Cc1c(Cl)cccc1OCCC(F)(F)F)c1ncc(Cl)s1 [Compound 1C-59] | 5 (Growth inhibition effect is equal to or greater than 90%, or complete withering is achieved) | – | 4 (Growth inhibition effect is equal to or greater than 70%, and less than 90%) | 5 (Growth inhibition effect is equal to or greater than 90%, or complete withering is achieved) | – | 5 (Growth inhibition effect is equal to or greater than 90%, or complete withering is achieved) | – | – | – | –
12 | CC(c1c(F)cccc1OC(F)F)[S+]([O-])c1ncc(Cl)s1 (stereo not shown) [Compound 1B-16] | – | – | – | – | – | – | 5 (Growth inhibition effect is equal to or greater than 90%, or complete withering is achieved) | 5 (Growth inhibition effect is equal to or greater than 90%, or complete withering is achieved) | 3 (Growth inhibition effect equal to or greater than 50%, and less than 70%) | 5 (Growth inhibition effect is equal to or greater than 90%, or complete withering is achieved)
13 | [O-][S+](Cc1c(F)cccc1OCC(F)(F)C(F)F)c1ncc(Cl)s1 (stereo not shown) [Compound 1B-12] | – | – | – | – | – | – | 5 (Growth inhibition effect is equal to or greater than 90%, or complete withering is achieved) | 5 (Growth inhibition effect is equal to or greater than 90%, or complete withering is achieved) | 5 (Growth inhibition effect is equal to or greater than 90%, or complete withering is achieved) | 5 (Growth inhibition effect is equal to or greater than 90%, or complete withering is achieved)
